PubChem BioAssay (NCI)
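Protocol summary: plate cells (96-well), add compound at 5 concentrations, incubate 48 h, interpolate endpoints linearly. Abbreviation: GI50, concentration required for 50% inhibition of growth. At the TGI there is no net growth.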

What was measured:
Test in all cases: growth of human tumour cells (NCI), 48 h
IGROV1 ovarian = test system: IGROV1 ovarian
SK-MEL-2 melanoma = test system: SK-MEL-2 melanoma
SF-268 CNS = test system: SF-268 CNS
MCF7 breast = test system: MCF7 breast
HCC-2998 colon = test system: HCC-2998 colon
BT-549 breast = test system: BT-549 breast
SN12C renal = test system: SN12C renal
HCT-15 colon = test system: HCT-15 colon
SNB-75 CNS = test system: SNB-75 CNS
T-47D breast = test system: T-47D breast

SMILES	GI50 (IGROV1 ovarian) [µM]	TGI (IGROV1 ovarian) [µM]	GI50 (SK-MEL-2 melanoma) [µM]	TGI (SK-MEL-2 melanoma) [µM]	GI50 (SF-268 CNS) [µM]	TGI (SF-268 CNS) [µM]	GI50 (MCF7 breast) [µM]	TGI (MCF7 breast) [µM]	GI50 (HCC-2998 colon) [µM]	TGI (HCC-2998 colon) [µM]	GI50 (BT-549 breast) [µM]	TGI (BT-549 breast) [µM]	GI50 (SN12C renal) [µM]	TGI (SN12C renal) [µM]	GI50 (HCT-15 colon) [µM]	TGI (HCT-15 colon) [µM]	TGI (SNB-75 CNS) [µM]	GI50 (SNB-75 CNS) [µM]	GI50 (T-47D breast) [µM]	TGI (T-47D breast) [µM]
O=C(NNc1ccc(Cl)cc1)C1CCC(CNS(=O)(=O)c2ccccc2Cl)CC1 (centres undefined)	42.5	> 100	30.9	> 100	8.31	> 100	4.88	> 100	1.48	13.8	21.6	52.6	14.7	50.9	5.68	61.5				
O=C(O)CCNS(=O)(=O)c1ccc2ccccc2c1		> 100		> 100		> 100				> 100				> 100		> 100	> 100			
COc1ccc(C(=O)c2cc(C)c(OC)c(C)c2)c(OC)c1NC(C)=O	0.529	> 100	> 100	> 100	1.82	> 100	0.491	> 100	0.31	> 100	0.258	> 100	0.448	> 100	0.452	> 100	> 100	0.0425		
Cc1ccc(NC(=O)C(=O)CC(=O)c2c(C)n([O-])c3ccccc3[n+]2=O)cc1C		> 100		> 100		> 100				> 100				> 100		> 100	> 100			
O=C(C(=O)n1ncc(Cl)c(Cl)c1=O)n1ncc(Cl)c(Cl)c1=O		> 77.3		74.9		> 100				46.9				> 65.8		46.5	97.2			
Cc1ccc(N=C[N-]c2ccc(C)cc2)cc1.Cc1ccc(N=C[N-]c2ccc(C)cc2)cc1.O=C([O-])C(F)(F)F.O=C([O-])C(F)(F)F.[OH3+].[OH3+].[Rh+2].[Rh+2]	26.6	72.2	32.6	69.8	28.4	81.6			36.5	> 100			34.9	> 100	46.1	> 100	53.9	16.8		
[N-]=[N+]=NCCCn1c2c(c3ccc([N+](=O)[O-])cc3c1=O)C(=O)c1cc(Br)ccc1-2	> 100	> 100	> 100	> 100	> 100	> 100	8.15	> 100	> 100	> 100	> 100	> 100	> 100	> 100	> 100	> 100			> 100	> 100
CN(C)CC1CC/C(=C\c2ccc3c(c2)OCO3)C1=O (centres undefined)		26.9		22.8		26.7		19.8		50.7		24.9		30.3		15	28.5			
CC(=O)OC12C=C(C)C(C(C)C1)C1C(=O)N(CCN3CCCCC3)C(=O)C12 (centres undefined)	> 50	> 50	> 50	> 50	> 50	> 50			> 50	> 50	> 50	> 50	> 50	> 50	> 50	> 50	> 50	> 50	> 50	> 50
COc1ccc2nc(C(=O)c3ccccc3)c(C)cc2c1		> 73.1		> 100		56.3				26.3				> 65.8		> 40.8	14.4			
Cc1ccc2nc(NC(=O)C(=O)C(C#N)c3ccc(Cl)cc3)sc2c1 (centres undefined)		> 50		> 50		> 50				> 50				> 50		> 50	> 50			
COc1ccccc1S(=O)(=O)Nc1ccc2c3c(cc(CCC(=O)NCCCCNc4cccc5c4C(=O)N(C4CCC(=O)NC4=O)C5=O)cc13)C(=O)N2C (centres undefined)	0.14	> 100	0.762	> 27.4	0.317	> 100	0.264	> 100			0.0874	1.56	0.462	> 100			0.828	0.0718	0.0343	
NC1c2ccccc2Nc2ccccc21		21.7		29.8		13.9				18.1				19		14	24.4			
O=C(O)/C(Cc1cn[nH]n1)=N\O		> 100		> 100		> 100		> 100				> 100		> 100		> 100	> 100			> 100
COc1ccc2oc3c(OC)c(OC)c(OC)cc3c(=O)c2c1		> 100		> 100		> 100				> 100				> 100		> 100	84.5			
CCC[CH2][Sn]([CH2]CCC)([S]C#N)[S]C#N	1.27	2.78	0.457	1.68	0.802	2.26			1.15	2.39			1.18	2.52	1.18	2.53	2.08	0.592		
C=C1C(O)C2CC(C)(CO)C(=O)C2=C(CC(C)C)C12CC2 (centres undefined)	> 100	> 100	> 100	> 100	> 100	> 100	63.9	> 100	> 100	> 100	> 100	> 100	> 100	> 100	82.3	> 100			> 100	> 100
Cc1cc(N(CCOS(C)(=O)=O)CCOS(C)(=O)=O)ccc1C(=O)O					> 100	> 100	87.4	> 100	> 100	> 100			> 100	> 100	> 100	> 100			> 100	> 100
CCCCCC(=O)Nc1nc2nc[nH]c2c(=O)[nH]1		> 100		> 100		> 100				> 100				> 100		> 100	> 100			
C/C(CN1C(=O)c2ccccc2C1=O)=N\NS(=O)(=O)c1cccc(C(=O)O)c1		> 100		> 100		> 100				> 100				> 100		> 100	> 100			
COCCOc1cc(C)cc(/C=C(C)/C=C/C2=C(C)CCCC2(C)C)n1		> 100		> 100		> 100								> 100			> 100			

SMILES	GI50 (IGROV1 ovarian) [µM]	TGI (IGROV1 ovarian) [µM]	GI50 (SK-MEL-2 melanoma) [µM]	TGI (SK-MEL-2 melanoma) [µM]	GI50 (SF-268 CNS) [µM]	TGI (SF-268 CNS) [µM]	GI50 (MCF7 breast) [µM]	TGI (MCF7 breast) [µM]	GI50 (HCC-2998 colon) [µM]	TGI (HCC-2998 colon) [µM]	GI50 (BT-549 breast) [µM]	TGI (BT-549 breast) [µM]	GI50 (SN12C renal) [µM]	TGI (SN12C renal) [µM]	GI50 (HCT-15 colon) [µM]	TGI (HCT-15 colon) [µM]	TGI (SNB-75 CNS) [µM]	GI50 (SNB-75 CNS) [µM]	GI50 (T-47D breast) [µM]	TGI (T-47D breast) [µM]
COc1ccc(-c2cncn2-c2cc(OC)c(OC)c(OC)c2)cc1	< 0.0157	1.53	0.045	> 100	2.01	59.7		> 34.8	0.0779	1.37	0.249	52	0.527	> 100	0.17	> 91.9			3.12	> 100
C1CCCCc2nc3c(nc2CCC1)c1nc2c(nc1c1nc4c(nc31)CCCCCCCC4)CCCCCCCC2		> 100		> 100		> 100				> 100				> 100		> 100	> 100			
CC1=C(C(=O)Nc2ccccc2)C(c2ccccc2Cl)C(C(=O)Nc2ccccc2)=C(C)N1		65.4		33.1		50.5				43.5				33		38.5	76.4			
CC1OC(=O)C(O)=C1O (centres undefined)		> 100		> 100		> 100				> 100				> 100		> 100	> 100			
O=[N+]([O-])c1ccc(Cl)c(CNc2ncnc3c2ncn3C2CCCCO2)c1 (centres undefined)		> 100		> 100		> 100		62				> 100		> 100		> 100	> 100			> 100
COc1ccc(C2=Nc3ccccc3SC(C)C2)cc1OC (centres undefined)		29.7		72.2		43.5				32.6				42		31.9	35			
COc1ccccc1NC(=O)C1=C(C)NC(C)=C(C(=O)Nc2ccccc2OC)C1/C=C/c1ccccc1		> 100		> 100		> 100				> 100				> 100		> 100	79.7			
Cc1cccc(C(=O)O)c1C(=O)c1cccc2ccccc12		> 100		> 100		> 100				> 100				> 100		> 100	> 100			
Clc1ccc(-c2c3ccc(=[N+]4CCCCC4)cc-3oc3cc(N4CCCCC4)ccc23)cc1									0.12	0.248	0.154	0.31					0.333	0.0494		
CCOC(=O)/C(=C/c1cccc(Cl)c1)N(CC)CC		> 100		68.5		> 100				> 100				> 100		> 100	> 100			
CCOC(=O)c1cc(-c2ccc(-c3cc(C(=O)OCC)c(C#N)c(N)c3C#N)cc2)c(C#N)c(N)c1C#N		> 100		> 100		> 100				> 100				> 100		> 100				
c1ccc(OCCC[P+](c2ccccc2)(c2ccccc2)c2ccccc2)cc1	1.42	17.4	1.56	4.88	3.82	19.2	0.677	10.3			1.42	17.1	2.61	12.5	22.2	> 100	6.7	1.27	0.383	29.5
COc1cc(/C=C/c2ccc(O)c(OC)c2)cc(OC)c1		> 100				> 100		> 100		> 100						45.8	97			> 100
CCN(CC)CC1CCCCN1CC(=O)N1CC(C)C(=O)Nc2ccccc21 (centres undefined)		> 100				> 100				> 100				> 100		> 100				
CCOC(=O)C(Cc1ccc(N(CCCl)CCCl)cc1)NC(=O)C(Cc1ccccc1)NC=O (centres undefined)		0.222		0.989		0.299		0.502				0.756		0.294		0.602				0.241
CCC(C)CC(C)CC(C)/C=C(\C)C1=C(C)CC(C)(O)O1 (centres undefined)		> 100								> 100				> 100		> 100	> 100			
CC(C)N(Cc1ccc(CN(C(=O)CCl)C(C)C)cc1)C(=O)CCl	0.629	2.55	2.36	5.88	1.66	3.49	1.7	12.1	2	3.94	1.87	4.16	1.49	3.71	1.38	3.64	2.59	1.29		
CC(C)c1cccc(C(C)C)c1N1C(=O)C(=O)C(c2nc3ccccc3o2)C(=O)C1=O		> 100		> 100		> 100				> 100				> 100		> 100	> 100			
COc1ccc(-c2ccc(/C=N/n3c(COc4ccccc4Cl)nn(CN4CCOCC4)c3=S)o2)c([N+](=O)[O-])c1	59.5	> 100			24	63.4	19.4	47.4	24.1	56.8	14.3	40.7	32	96.7	28.2	> 100			53.9	> 100
CC(C)c1cc(C(C)C)c(S(=O)(=O)N=[N+]=[N-])c(C(C)C)c1		> 100				> 100				> 100				> 100		> 100	> 100			
C#CC1=CC(=O)C(OC)=CC1=O				33.7		> 100		35.8		81.5				31.7		32.3	18.5			87.5
